Activity calls are given as the source filed them. The rule behind the calls is not given here.
System: CCRIS mutagenicity, Ames/micronucleus/aberration tests
Assay: CCRIS mutagenicity studies
[1] = Test System: AMES SALMONELLA TYPHIMURIUM, Strain/Indicator: TA98, Metabolic Activation: NONE, Method: PREINCUBATION
[2] = Test System: AMES SALMONELLA TYPHIMURIUM, Strain/Indicator: TA98, Metabolic Activation: RAT, LIVER, S-9, AROCLOR 1254, Method: PREINCUBATION
[3] = Test System: AMES SALMONELLA TYPHIMURIUM, Strain/Indicator: TA100, Metabolic Activation: NONE, Method: PREINCUBATION
[4] = Test System: AMES SALMONELLA TYPHIMURIUM, Strain/Indicator: TA100, Metabolic Activation: RAT, LIVER, S-9, AROCLOR 1254, Method: PREINCUBATION
[5] = Test System: AMES SALMONELLA TYPHIMURIUM, Strain/Indicator: TA1535, Metabolic Activation: NONE, Method: PREINCUBATION
[6] = Test System: AMES SALMONELLA TYPHIMURIUM, Strain/Indicator: TA1535, Metabolic Activation: RAT, LIVER, S-9, AROCLOR 1254, Method: PREINCUBATION
[7] = Test System: AMES SALMONELLA TYPHIMURIUM, Strain/Indicator: TA1537, Metabolic Activation: NONE, Method: PREINCUBATION
[8] = Test System: AMES SALMONELLA TYPHIMURIUM, Strain/Indicator: TA1537, Metabolic Activation: RAT, LIVER, S-9, AROCLOR 1254, Method: PREINCUBATION
[9] = Test System: AMES SALMONELLA TYPHIMURIUM, Strain/Indicator: TA98, Metabolic Activation: NONE, Method: STANDARD PLATE
[10] = Test System: AMES SALMONELLA TYPHIMURIUM, Strain/Indicator: TA100, Metabolic Activation: NONE, Method: STANDARD PLATE
[11] = Test System: AMES SALMONELLA TYPHIMURIUM, Strain/Indicator: TA98, Metabolic Activation: NONE

In the case of `CC(O)CO` (stereo not given), the mutagenic call (Test System: AMES SALMONELLA TYPHIMURIUM, Strain/Indicator: TA98, Metabolic Activation: HAMSTER, LIVER, S-9, AROCLOR 1254, Method: PREINCUBATION) is reported as “inactive; negative”, the mutagenic call [1] is reported as “inactive; negative” and the mutagenic call [2] is reported as “inactive; negative”. The mutagenic call (Test System: AMES SALMONELLA TYPHIMURIUM, Strain/Indicator: TA100, Metabolic Activation: HAMSTER, LIVER, S-9, AROCLOR 1254, Method: PREINCUBATION) was “inactive; negative”, the mutagenic call [3] was “inactive; negative” and the mutagenic call [4] was “inactive; negative”. For the same compound, the mutagenic call (Test System: AMES SALMONELLA TYPHIMURIUM, Strain/Indicator: TA1535, Metabolic Activation: HAMSTER, LIVER, S-9, AROCLOR 1254, Method: PREINCUBATION) was “inactive; negative”, the mutagenic call [5] was “inactive; negative” and the mutagenic call [6] was “inactive; negative”. For the same compound, the mutagenic call (Test System: AMES SALMONELLA TYPHIMURIUM, Strain/Indicator: TA1537, Metabolic Activation: HAMSTER, LIVER, S-9, AROCLOR 1254, Method: PREINCUBATION) was “inactive; negative”, the mutagenic call [7] was “inactive; negative” and the mutagenic call [8] was “inactive; negative”.
`O=C(c1ccccc1)C1OC1c1ccc([N+](=O)[O-])cc1` (stereo not given) was tested, and the mutagenic call [9] was “inactive; negative”, the mutagenic call (Test System: AMES SALMONELLA TYPHIMURIUM, Strain/Indicator: TA98, Metabolic Activation: RAT, LIVER, S-9, AROCLOR 1254, Method: STANDARD PLATE) was “inactive; negative” and the mutagenic call [10] was “inactive; negative”. For the same compound, the mutagenic call (Test System: AMES SALMONELLA TYPHIMURIUM, Strain/Indicator: TA100, Metabolic Activation: RAT, LIVER, S-9, AROCLOR 1254, Method: STANDARD PLATE) was “inactive; negative”.
For `CC(C)(Oc1ccc(C2CCCc3ccccc32)cc1)C(=O)O` (stereo not given), the mutagenic call [11] was “inactive; negative”, the mutagenic call (Test System: AMES SALMONELLA TYPHIMURIUM, Strain/Indicator: TA98, Metabolic Activation: RAT, LIVER, S-9, AROCLOR 1254) was “inactive; negative” and the mutagenic call (Test System: AMES SALMONELLA TYPHIMURIUM, Strain/Indicator: TA102, Metabolic Activation: NONE) was “inactive; negative”. For the same compound, the mutagenic call (Test System: AMES SALMONELLA TYPHIMURIUM, Strain/Indicator: TA102, Metabolic Activation: RAT, LIVER, S-9, AROCLOR 1254) was “inactive; negative”, the mutagenic call (Test System: AMES SALMONELLA TYPHIMURIUM, Strain/Indicator: TA104, Metabolic Activation: NONE) was “inactive; negative” and the mutagenic call (Test System: AMES SALMONELLA TYPHIMURIUM, Strain/Indicator: TA104, Metabolic Activation: RAT, LIVER, S-9, AROCLOR 1254) was “inactive; negative”. The mutagenic call (Test System: UDS RAT HEPATOCYTES, Strain/Indicator: THY INCORP, Metabolic Activation: NONE, Method: LIQUID SCINTILLATION COUNTING) was “inactive; negative”.
With `CC(=O)Oc1cc(C=O)cc2c1C(COC(N)=O)C1(OC(C)=O)ON2CC2C1N2C(C)=O` (stereo not given) the mutagenic call [1] was “inactive; negative”, the mutagenic call (Test System: AMES SALMONELLA TYPHIMURIUM, Strain/Indicator: TA98, Metabolic Activation: RAT, LIVER, S-9, PHENOBARBITAL AND 5,6-BENZOFLAVONE, Method: PREINCUBATION) was “inactive; negative” and the mutagenic call [3] was “inactive; negative”. The mutagenic call (Test System: AMES SALMONELLA TYPHIMURIUM, Strain/Indicator: TA100, Metabolic Activation: RAT, LIVER, S-9, PHENOBARBITAL AND 5,6-BENZOFLAVONE, Method: PREINCUBATION) was “inactive; negative”, the mutagenic call (Test System: AMES SALMONELLA TYPHIMURIUM, Strain/Indicator: TA102, Metabolic Activation: NONE, Method: PREINCUBATION) was “inactive; negative” and the mutagenic call (Test System: AMES SALMONELLA TYPHIMURIUM, Strain/Indicator: TA102, Metabolic Activation: RAT, LIVER, S-9, PHENOBARBITAL AND 5,6-BENZOFLAVONE, Method: PREINCUBATION) was “active; positive”. The mutagenic call [5] was “inactive; negative”, the mutagenic call (Test System: AMES SALMONELLA TYPHIMURIUM, Strain/Indicator: TA1535, Metabolic Activation: RAT, LIVER, S-9, PHENOBARBITAL AND 5,6-BENZOFLAVONE, Method: PREINCUBATION) was “inactive; negative” and the mutagenic call [7] was “inactive; negative”. For the same compound, the mutagenic call (Test System: AMES SALMONELLA TYPHIMURIUM, Strain/Indicator: TA1537, Metabolic Activation: RAT, LIVER, S-9, PHENOBARBITAL AND 5,6-BENZOFLAVONE, Method: PREINCUBATION) was “inactive; negative”.
In the case of `CCCN(CCC)c1c([N+](=O)[O-])cc(C(F)(F)F)cc1[N+](=O)[O-]`, the mutagenic call (Test System: AMES SALMONELLA TYPHIMURIUM, Strain/Indicator: TA98, Metabolic Activation: LIVER S-9) is reported as “inactive; negative”, the mutagenic call [11] is reported as “inactive; negative” and the mutagenic call (Test System: AMES SALMONELLA TYPHIMURIUM, Strain/Indicator: TA100, Metabolic Activation: LIVER S-9) is reported as “inactive; negative”. The mutagenic call (Test System: AMES SALMONELLA TYPHIMURIUM, Strain/Indicator: TA100, Metabolic Activation: NONE) was “inactive; negative”, the mutagenic call (Test System: AMES SALMONELLA TYPHIMURIUM, Strain/Indicator: TA1535, Metabolic Activation: LIVER S-9) was “inactive; negative” and the mutagenic call (Test System: AMES SALMONELLA TYPHIMURIUM, Strain/Indicator: TA1535, Metabolic Activation: NONE) was “inactive; negative”. The mutagenic call (Test System: AMES SALMONELLA TYPHIMURIUM, Strain/Indicator: TA1537, Metabolic Activation: LIVER S-9) was “inactive; negative”, the mutagenic call (Test System: AMES SALMONELLA TYPHIMURIUM, Strain/Indicator: TA1537, Metabolic Activation: NONE) was “inactive; negative” and the mutagenic call (Test System: AMES SALMONELLA TYPHIMURIUM, Strain/Indicator: TA1538, Metabolic Activation: LIVER S-9) was “inactive; negative”. For the same compound, the mutagenic call (Test System: AMES SALMONELLA TYPHIMURIUM, Strain/Indicator: TA1538, Metabolic Activation: NONE) was “inactive; negative”, the mutagenic call (Test System: CHINESE HAMSTER V-79 CELLS, Strain/Indicator: HGPRT, Metabolic Activation: LIVER S-9) was “inactive; negative” and the mutagenic call (Test System: CHINESE HAMSTER V-79 CELLS, Strain/Indicator: HGPRT, Metabolic Activation: NONE) was “inactive; negative”. For the same compound, the mutagenic call (Test System: CHO-KI CELLS, Strain/Indicator: HGPRT, Metabolic Activation: LIVER S-9) was “inactive; negative”, the mutagenic call (Test System: CHO-KI CELLS, Strain/Indicator: HGPRT, Metabolic Activation: NONE) was “inactive; negative” and the mutagenic call (Test System: UDS HELA CELLS, Metabolic Activation: LIVER S-9) was “inactive; negative”. For the same compound, the mutagenic call (Test System: UDS HELA CELLS, Metabolic Activation: NONE) was “inactive; negative” and the mutagenic call (Test System: UDS RAT HEPATOCYTES, Metabolic Activation: NONE) was “inactive; negative”.
In the case of `Cc1ccc2c(ccc3cc4ccccc4cc32)c1`, the mutagenic call (Test System: AMES SALMONELLA TYPHIMURIUM, Strain/Indicator: TA100, Metabolic Activation: RAT, INTACT HEPATOCYTES, AROCLOR 1254, Method: PREINCUBATION) is reported as “inactive; negative”, the mutagenic call (Test System: AMES SALMONELLA TYPHIMURIUM, Strain/Indicator: TA100, Metabolic Activation: RAT, NADPH-FORTIFIED HOMOGENIZED HEPATOCYTES, AROCLOR 1254, Method: PREINCUBATION) is reported as “active; positive” and the mutagenic call (Test System: AMES SALMONELLA TYPHIMURIUM, Strain/Indicator: TA100, Metabolic Activation: RAT, SONICATED HEPATOCYTES, AROCLOR 1254, Method: PREINCUBATION) is reported as “active; positive”.
For `COc1cc2c(cc1OC)CN(N=O)CC2`, the mutagenic call [2] was “active; positive”, the mutagenic call [4] was “active; positive” and the mutagenic call [6] was “active; positive”. The mutagenic call [8] was “active; positive” and the mutagenic call (Test System: AMES SALMONELLA TYPHIMURIUM, Strain/Indicator: TA1538, Metabolic Activation: RAT, LIVER, S-9, AROCLOR 1254, Method: PREINCUBATION) was “active; positive”.
In the case of `ClCc1cc2c3ccccc3cc3ccc4cccc1c4c32`, the mutagenic call [9] is reported as “active; positive” and the mutagenic call [10] is reported as “active; positive”.
